# Reference: patent publication US20060128640A1 (priority 2001, published 2006)
# Like-named read-outs stand apart in the source and are kept apart here.
# What was measured:
# [1] = test system: mammary adenocarcinoma MA 13/C; conditions: for % bwl (nadir): mouse, in vivo, iv; for HNTD (DT), total dose / HNTD (highest non-toxic dose), per dose: single agent IV, days 15, 21
# Protocol: A product is considered to be active if log10 cell kill is greater than or equal to 0.7. A product is considered to be very active if log10 cell kill is greater than 2.8.
# The animals subjected to the experiment, generally mice, are subcutaneously grafted bilaterally with 30 to 60 mg of a tumor fragment on day zero. The animals bearing tumors are mixed before being subjected to the various treatments and controls. In the case of treatment of advanced tumors, tumors are allowed to develop to the desired size, animals having insufficiently developed tumors being eliminated. The selected animals are distributed at random to undergo the treatments and controls. […] Chemotherapy generally begins from 3 to 22 days after grafting, depending on the type of tumor. The animals are observed every day. The different animal groups are weighed 3 or 4 times a week until the maximum weight loss is attained, and the groups are then weighed at least once a week until the end of the trial.
# The tumors are measured 2 or 3 times a week until the tumor reaches approximately 2 g, or until the animal dies, if this occurs before the tumor reaches 2 g. The animals are autopsied after death.
# [2] = test system: MA13/C
# [3] = test system: murine mammary adenocarcinoma MA13/C; conditions: for highest non-toxic total dose, component alone: single agent IV, Taxotere d14, 23, flavopiridol d14-17, 20-23
# [4] = Flavo alone IV at HNTD 2.9 mg/kg/dose (total 23.2 mg/kg)
# [5] = Flavopiridol alone IV 1.75 mg/kg/dose d14-17, 20-23 (total 14)
# [6] = Flavopiridol alone IV 2.9 mg/kg/dose d14-17, 20-23 (total 23.2)
# [7] = Flavopiridol alone IV 4.8 mg/kg/dose d14-17, 20-23 (total 38.4)
# [8] = Taxotere alone IV 48.1 mg/kg/dose d14, 23 (total 96.8)
smiles,measurement,setting,value
"CN1CC[C@H](c2c(O)cc(O)c3c(=O)cc(-c4ccccc4Cl)oc23)[C@H](O)C1 [Flavopiridol, cis-5,7-dihydroxy-2-(2-chlorophenyl)-8-[4-(3-hydroxy-1-methyl)-piperidinyl]-1-benzopyran-4-one]",lck (log10 cell kill),"[1]; Flavopiridol alone IV 6.0 mg/kg days 15, 21 (total 12.0)",0.4
same,CR (complete response),"[1]; Flavopiridol alone IV 6.0 mg/kg days 15, 21 (total 12.0), 6 mg/kg",0/5 CR
same,CR (complete response),"[1]; Flavopiridol alone IV 6.0 mg/kg days 15, 21 (total 12.0), listed as flavopiridol, 6 mg/kg",no compete responses in the 5 mice tested
same,% bwl (nadir),[1]; 6 mg/kg,6 (16) %
same,"HNTD (DT), total dose",[1],(12.0) mg/kg
same,"HNTD (highest non-toxic dose), per dose",[1],6.0 mg/kg
same,lck (log10 cell kill),"[2]; Flavopiridol alone po 2.7 mg/kg days 14-18, 21-25 (total 27)",0.1
same,% bwl (nadir),"[2]; mouse, in vivo, po, 2.7 mg/kg",11.6%
same,activity rating,[3]; [4],inactive
same,log cell kill net,[3]; [4],−0.4
same,"highest non-toxic dose (HNTD), per dose","[3]; Flavo alone IV once a day, day 14 to 17 and 20-23",2.9 mg/kg/dose
same,CR (complete response),[3]; [5],0/6
same,lck Gross,[3]; [5],0.0
same,% bwl (nadir),"[3]; Flavopiridol alone IV 1.75 mg/kg/dose d14-17, 20-23 (total 14), day 24",+10 (24) %
same,Comments (toxicity level of the dose),[3]; [6],HNTD
same,lck Gross,[3]; [6],1.0
same,CR (complete response),"[3]; Flavopiridol alone IV 2.9 mg/kg/dose d14-17, 20-23 (total 23.2), 2.9 mg/kg",0/6
same,CR (complete response),"[3]; Flavopiridol alone IV 2.9 mg/kg/dose d14-17, 20-23 (total 23.2), listed as Flavo, 2.9 mg/kg",no complete regression
same,% bwl (nadir),"[3]; Flavopiridol alone IV 2.9 mg/kg/dose d14-17, 20-23 (total 23.2), nadir day 18",3 (18) %
same,% bwl (nadir),[3]; [7],>20%
same,Comments: DD,[3]; [7],4/5 DD
same,"highest non-toxic total dose, component alone",[3],23.2 mg/kg
"CC(=O)O[C@@]12CO[C@@H]1C[C@H](O)[C@@]1(C)C(=O)[C@H](O)C3=C(C)[C@@H](OC(=O)[C@H](O)[C@@H](NC(=O)OC(C)(C)C)c4ccccc4)C[C@@](O)([C@@H](OC(=O)c4ccccc4)[C@H]21)C3(C)C [Taxotere ®, docetaxel]",lck (log10 cell kill),"[1]; Taxotere alone IV 30.0 mg/kg days 15, 21 (total 60.0)",4.7
same,CR (complete response),"[1]; Taxotere alone IV 30.0 mg/kg days 15, 21 (total 60.0), 30 mg/kg",5/5 CR
same,CR (complete response),"[1]; Taxotere alone IV 30.0 mg/kg days 15, 21 (total 60.0), listed as Taxotere®, 30 mg/kg",complete response in all 5 of the mice
same,% bwl (nadir),[1]; 30 mg/kg,8 (27) %
same,"HNTD (DT), total dose",[1],(60.0) mg/kg
same,"HNTD (highest non-toxic dose), per dose",[1],30.0 mg/kg
same,lck (log10 cell kill),"[2]; Taxotere alone IV 30 mg/kg days 14, 25 (total 60)",0.9
same,"HNTD (DT), total dose","[2]; mouse, in vivo",(60) mg/kg
same,"HNTD, per dose","[2]; mouse, in vivo",30 mg/kg
same,% bwl (nadir),"[2]; mouse, in vivo, iv, 30 mg/kg",3.6%
same,Comments (toxicity level of the dose),"[2]; mouse, in vivo, iv, 30 mg/kg",HNTD
same,CR (complete response),[3]; [8],6/6
same,Comments (toxicity level of the dose),[3]; [8],HNTD
same,lck Gross,[3]; [8],4.4
same,% bwl (nadir),"[3]; Taxotere alone IV 48.1 mg/kg/dose d14, 23 (total 96.8), nadir day 28",8 (28) %
same,Comments: DD,"[3]; Taxotere alone IV 78.1 mg/kg/dose d14, 23 (total 156.2)",2/6 DD
same,% bwl (nadir),"[3]; Taxotere alone IV 78.1 mg/kg/dose d14, 23 (total 156.2), nadir day 29",20 (29) %
same,log cell kill net,[3]; docetaxel alone at HNTD 48.1 mg/kg/injection (total 96.8 mg/kg),3
same,"HNTD, per injection","[3]; docetaxel alone, days 14 and 23",48.1 mg/kg/injection
same,"highest non-toxic total dose, component alone",[3],96.8 mg/kg
